Patent US11104648B2, “Pyrazole derivative” (Zhejiang Research Institute of Chemical Industry Co., Ltd., priority 2018, dated 2021)
Where two headings read alike, the source gives them in different places.

What was measured:
Format in all cases: in vivo
[1] = test system: Tetranychus cinnabarinus Nymphs; experiment: Activity assay of Tetranychus cinnabarinus nymphs (spray on broad bean leaves); conditions: 48 h; for pest or weed control at 2.5 µg/mL: concentration 2.5 mg/L; for pest or weed control at 2.5 µg/mL / pest or weed control at 2 µg/mL: read-out: nymph-killing activity; for pest or weed control at 2 µg/mL: concentration 2 mg/L
Outline: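 Compound in DMF (≤10%) diluted in 1‰ Tween 80 water was sprayed onto broad bean leaves carrying nymphs hatched from eggs laid by female adults over 24 h. Kept at 26±2° C., 70%–80% humidity, 16 h light; mortality (no response to touch) assessed after 48 h, three replicates with blank control.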

[2] = test system: Eggs of Tetranychus Cinnabarinus; experiment: Activity assay of eggs of Tetranychus cinnabarinus (spray method, ovicidal); conditions: Tetranychus cinnabarinus; for pest or weed control at 5 µg/mL: concentration 5 mg/L, non-incubated eggs counted as dead; for pest or weed control at 2 µg/mL: concentration 2 mg/L
Outline: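 Female mites laid eggs on broad bean leaves for 24 h, adults removed, eggs sprayed with compound in DMF (≤10%)/1‰ Tween 80. Held at 26±2° C, 70–80% humidity, 16 h light; unhatched eggs counted dead once blank control hatched. Three replicates.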

[3] = test system: adult Tetranychus cinnabarinus; experiment: Activity assay of adult Tetranychus cinnabarinus (whole-plant spray on bean seedlings); conditions: 48 h; for pest or weed control at 2.5 µg/mL: concentration 2.5 mg/L; for pest or weed control at 1.25 µg/mL: concentration 1.25 mg/L
Outline: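 Bean seedlings at two-true-leaf stage, infested with adult mites and base count taken, sprayed whole-plant with compound in DMF (≤10%) diluted in 1‰ Tween 80. Three replicates per treatment kept in standard observation room. Surviving mites counted at 48 h to give death rate.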

[4] = spray, read-out: ovicidal activity
[5] = read-out: adult mite-killing activity

| SMILES | pest or weed control at 2.5 µg/mL [1] [%] | pest or weed control at 5 µg/mL [2, 4] [%] | pest or weed control at 2.5 µg/mL [3, 5] [%] | pest or weed control at 2 µg/mL [1] [%] | pest or weed control at 0.5 µg/mL ([1]; nymphs, concentration 0.5 mg/L, parallel determination, read-out: Death rate (%)) [%] | pest or weed control at 2 µg/mL [2, 4] [%] | pest or weed control at 2 µg/mL ([2]; eggs, parallel determination, read-out: Death rate (%)) [%] | pest or weed control at 1.25 µg/mL ([3]; adult mites, parallel determination, read-out: Death rate (%)) [%] | pest or weed control at 1.25 µg/mL [3, 5] [%] |
| --- | --- | --- | --- | --- | --- | --- | --- | --- | --- |
| C=CCOC(=O)OCO/C(=C(/C#N)c1ccc(C(C)(C)C)cc1)c1cc(C)nn1C [Compound 474] | ≥ 95 | ≥ 90 | ≥ 90 | – | – | – | – | – | – |
| C#CCOC(=O)OCO/C(=C(/C#N)c1ccc(C(C)(C)C)cc1)c1cc(C)nn1C [Compound 476] | ≥ 95 | ≥ 90 | ≥ 90 | – | – | – | – | – | – |
| COC(=O)COC(=O)OCO/C(=C(/C#N)c1ccc(C(C)(C)C)cc1)c1cc(C)nn1C [Compound 477] | ≥ 95 | ≥ 90 | ≥ 90 | – | – | – | – | – | – |
| CCSC(=O)OCO/C(=C(/C#N)c1ccc(C(C)(C)C)cc1)c1cc(C)nn1C [Compound 480] | ≥ 95 | ≥ 90 | ≥ 90 | – | – | – | – | – | – |
| COC(=O)CSC(=O)OCO/C(=C(/C#N)c1ccc(C(C)(C)C)cc1)c1cc(C)nn1C [Compound 481] | ≥ 95 | ≥ 90 | ≥ 90 | – | – | – | – | – | – |
| COC(=O)OC(C)O/C(=C(/C#N)c1ccc(C(C)(C)C)cc1)c1cc(C)nn1C (stereo not drawn) [Compound 483] | ≥ 95 | ≥ 90 | ≥ 90 | – | – | – | – | – | – |
| Cc1cc(/C(OC(C)OC(=O)OC(C)C)=C(\C#N)c2ccc(C(C)(C)C)cc2)n(C)n1 (stereo not drawn) [Compound 486] | ≥ 95 | ≥ 90 | ≥ 90 | – | – | – | – | – | – |
| CCCCOC(=O)OC(C)O/C(=C(/C#N)c1ccc(C(C)(C)C)cc1)c1cc(C)nn1C (stereo not drawn) [Compound 488] | ≥ 95 | ≥ 90 | ≥ 90 | – | – | – | – | – | – |
| Cc1cc(/C(OC(C)OC(=O)OCC(C)C)=C(\C#N)c2ccc(C(C)(C)C)cc2)n(C)n1 (stereo not drawn) [Compound 489] | ≥ 95 | ≥ 90 | ≥ 90 | – | – | – | – | – | – |
| Cc1cc(/C(OC(C)OC(=O)OCCC(C)C)=C(\C#N)c2ccc(C(C)(C)C)cc2)n(C)n1 (stereo not drawn) [Compound 490] | ≥ 95 | ≥ 90 | ≥ 90 | – | – | – | – | – | – |
| CCCCCOC(=O)OC(C)O/C(=C(/C#N)c1ccc(C(C)(C)C)cc1)c1cc(C)nn1C (stereo not drawn) [Compound 492] | ≥ 95 | ≥ 90 | ≥ 90 | – | – | – | – | – | – |
| Cc1cc(/C(OC(C)OC(=O)OCCCl)=C(\C#N)c2ccc(C(C)(C)C)cc2)n(C)n1 (stereo not drawn) [Compound 494] | ≥ 95 | ≥ 90 | ≥ 90 | – | – | – | – | – | – |
| Cc1cc(/C(OC(C)OC(=O)OCC(F)(F)F)=C(\C#N)c2ccc(C(C)(C)C)cc2)n(C)n1 (stereo not drawn) [Compound 499] | ≥ 95 | ≥ 90 | ≥ 90 | – | – | – | – | – | – |
| COCCOC(=O)OC(C)O/C(=C(/C#N)c1ccc(C(C)(C)C)cc1)c1cc(C)nn1C (stereo not drawn) [Compound 500] | ≥ 95 | ≥ 90 | ≥ 90 | – | – | – | – | – | – |
| CSCCOC(=O)OC(C)O/C(=C(/C#N)c1ccc(C(C)(C)C)cc1)c1cc(C)nn1C (stereo not drawn) [Compound 503] | ≥ 95 | ≥ 90 | ≥ 90 | – | – | – | – | – | – |
| C=CCOC(=O)OC(C)O/C(=C(/C#N)c1ccc(C(C)(C)C)cc1)c1cc(C)nn1C (stereo not drawn) [Compound 506] | ≥ 95 | ≥ 90 | ≥ 90 | – | – | – | – | – | – |
| C#CCOC(=O)OC(C)O/C(=C(/C#N)c1ccc(C(C)(C)C)cc1)c1cc(C)nn1C (stereo not drawn) [Compound 508] | ≥ 95 | ≥ 90 | ≥ 90 | – | – | – | – | – | – |
| COC(=O)COC(=O)OC(C)O/C(=C(/C#N)c1ccc(C(C)(C)C)cc1)c1cc(C)nn1C (stereo not drawn) [Compound 509] | ≥ 95 | ≥ 90 | ≥ 90 | – | – | – | – | – | – |
| CCSC(=O)OC(C)O/C(=C(/C#N)c1ccc(C(C)(C)C)cc1)c1cc(C)nn1C (stereo not drawn) [Compound 512] | ≥ 95 | ≥ 90 | ≥ 90 | – | – | – | – | – | – |
| COC(=O)CSC(=O)OC(C)O/C(=C(/C#N)c1ccc(C(C)(C)C)cc1)c1cc(C)nn1C (stereo not drawn) [Compound 513] | ≥ 95 | ≥ 90 | ≥ 90 | – | – | – | – | – | – |

| SMILES | pest or weed control at 2.5 µg/mL [1] [%] | pest or weed control at 5 µg/mL [2, 4] [%] | pest or weed control at 2.5 µg/mL [3, 5] [%] | pest or weed control at 2 µg/mL [1] [%] | pest or weed control at 0.5 µg/mL ([1]; nymphs, concentration 0.5 mg/L, parallel determination, read-out: Death rate (%)) [%] | pest or weed control at 2 µg/mL [2, 4] [%] | pest or weed control at 2 µg/mL ([2]; eggs, parallel determination, read-out: Death rate (%)) [%] | pest or weed control at 1.25 µg/mL ([3]; adult mites, parallel determination, read-out: Death rate (%)) [%] | pest or weed control at 1.25 µg/mL [3, 5] [%] |
| --- | --- | --- | --- | --- | --- | --- | --- | --- | --- |
| CCn1nc(C)cc1/C(OCOC(=O)OC)=C(\C#N)c1ccc(C(C)(C)C)cc1 [Compound 547] | – | – | – | ≥ 90 | 93 | ≥ 90 | 100 | 100 | ≥ 90 |
| CCn1nc(C)cc1/C(OCOC(=O)OC(C)C)=C(\C#N)c1ccc(C(C)(C)C)cc1 [Compound 550] | ≥ 95 | ≥ 90 | ≥ 90 | ≥ 90 | – | ≥ 90 | – | – | ≥ 90 |
| CCCCOC(=O)OCO/C(=C(/C#N)c1ccc(C(C)(C)C)cc1)c1cc(C)nn1CC [Compound 552] | ≥ 95 | ≥ 90 | ≥ 90 | – | – | – | – | – | – |
| CCn1nc(C)cc1/C(OCOC(=O)OCC(C)C)=C(\C#N)c1ccc(C(C)(C)C)cc1 [Compound 553] | ≥ 95 | ≥ 90 | ≥ 90 | ≥ 90 | – | ≥ 90 | – | – | ≥ 90 |
| CCn1nc(C)cc1/C(OCOC(=O)OCCC(C)C)=C(\C#N)c1ccc(C(C)(C)C)cc1 [Compound 554] | ≥ 95 | ≥ 90 | ≥ 90 | – | – | – | – | – | – |
| CCCCCOC(=O)OCO/C(=C(/C#N)c1ccc(C(C)(C)C)cc1)c1cc(C)nn1CC [Compound 556] | ≥ 95 | ≥ 90 | ≥ 90 | – | – | – | – | – | – |
| CCn1nc(C)cc1/C(OCOC(=O)OCCCl)=C(\C#N)c1ccc(C(C)(C)C)cc1 [Compound 558] | ≥ 95 | ≥ 90 | ≥ 90 | – | – | – | – | – | – |
| CCn1nc(C)cc1/C(OCOC(=O)OCC(F)(F)F)=C(\C#N)c1ccc(C(C)(C)C)cc1 [Compound 563] | ≥ 95 | ≥ 90 | ≥ 90 | – | – | – | – | – | – |
| CCn1nc(C)cc1/C(OCOC(=O)OCCOC)=C(\C#N)c1ccc(C(C)(C)C)cc1 [Compound 564] | ≥ 95 | ≥ 90 | ≥ 90 | – | – | – | – | – | – |
| CCn1nc(C)cc1/C(OCOC(=O)OCCSC)=C(\C#N)c1ccc(C(C)(C)C)cc1 [Compound 567] | ≥ 95 | ≥ 90 | ≥ 90 | – | – | – | – | – | – |
| C=CCOC(=O)OCO/C(=C(/C#N)c1ccc(C(C)(C)C)cc1)c1cc(C)nn1CC [Compound 570] | ≥ 95 | ≥ 90 | ≥ 90 | ≥ 90 | – | ≥ 90 | – | – | ≥ 90 |
| C#CCOC(=O)OCO/C(=C(/C#N)c1ccc(C(C)(C)C)cc1)c1cc(C)nn1CC [Compound 572] | ≥ 95 | ≥ 90 | ≥ 90 | – | – | – | – | – | – |
| CCn1nc(C)cc1/C(OCOC(=O)OCC(=O)OC)=C(\C#N)c1ccc(C(C)(C)C)cc1 [Compound 573] | ≥ 95 | ≥ 90 | ≥ 90 | – | – | – | – | – | – |
| CCSC(=O)OCO/C(=C(/C#N)c1ccc(C(C)(C)C)cc1)c1cc(C)nn1CC [Compound 576] | ≥ 95 | ≥ 90 | ≥ 90 | – | – | – | – | – | – |
| CCn1nc(C)cc1/C(OCOC(=O)SCC(=O)OC)=C(\C#N)c1ccc(C(C)(C)C)cc1 [Compound 577] | ≥ 95 | ≥ 90 | ≥ 90 | – | – | – | – | – | – |
| CCn1nc(C)cc1/C(OC(C)OC(=O)OC)=C(\C#N)c1ccc(C(C)(C)C)cc1 (stereo not drawn) [Compound 579] | ≥ 95 | ≥ 90 | ≥ 90 | ≥ 90 | – | ≥ 90 | – | – | ≥ 90 |
| CCOC(=O)OC(C)O/C(=C(/C#N)c1ccc(C(C)(C)C)cc1)c1cc(C)nn1CC (stereo not drawn) [Compound 580] | ≥ 95 | ≥ 90 | ≥ 90 | ≥ 90 | – | ≥ 90 | – | – | ≥ 90 |
| CCn1nc(C)cc1/C(OC(C)OC(=O)OC(C)C)=C(\C#N)c1ccc(C(C)(C)C)cc1 (stereo not drawn) [Compound 582] | ≥ 95 | ≥ 90 | ≥ 90 | – | – | – | – | – | – |
| CCCCOC(=O)OC(C)O/C(=C(/C#N)c1ccc(C(C)(C)C)cc1)c1cc(C)nn1CC (stereo not drawn) [Compound 584] | ≥ 95 | ≥ 90 | ≥ 90 | – | – | – | – | – | – |
